# Source: paper PMC11217349, “Development of Nurr1 agonists from amodiaquine by scaffold hopping and fragment growing” (Communications Chemistry, 2024)
# Where “and” joins values, the source holds several entries; their conditions need not be identical. Equal values may be shown once. Read-outs that look alike come from different tables or passages of the source.
# Key:
# [1] = target: T1, human Nurr1 (hinge region and ligand binding domain) (Homo sapiens, UniProt P43354); test: Gal4-Nurr1 hybrid reporter gene assay; type: cell-based; settings: for max. activation: maximum effect vs. 0.1% DMSO control; for highest non-toxic concentration: Gal4-Nurr1 hybrid reporter gene assay
# T1 construct: expressed in transfected cells; host or cells: HEK293T
# T1 sequence (P43354 360-595 limits assumed): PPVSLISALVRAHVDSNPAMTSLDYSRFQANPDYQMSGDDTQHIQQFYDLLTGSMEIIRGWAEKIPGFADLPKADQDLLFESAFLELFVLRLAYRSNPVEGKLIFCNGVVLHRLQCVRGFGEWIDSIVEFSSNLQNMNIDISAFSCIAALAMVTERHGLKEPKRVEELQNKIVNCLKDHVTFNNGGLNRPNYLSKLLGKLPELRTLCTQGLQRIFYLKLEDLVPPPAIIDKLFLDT
# Procedure: Nurr1 modulation was determined in a Gal4 hybrid reporter gene assay in HEK293T cells (German Collection of Microorganisms and Cell Culture GmbH, DSMZ) using pFR-Luc (Stratagene, La Jolla, CA, USA; reporter), pRL-SV40 (Promega, Madison, WI, USA; internal control) and pFA-CMV-hNurr1-LBD[14], coding for the hinge region and ligand binding domain of the canonical isoform of human Nurr1. […] After 24 h, the medium was changed to Opti-MEM without supplements, and cells were transiently transfected using Lipofectamine LTX reagent (Invitrogen, Carlsbad, CA, USA) according to the manufacturer’s protocol. Five hours after transfection, cells were incubated with the test compounds in Opti-MEM supplemented with penicillin (100 U/mL), streptomycin (100 μg/mL), and 0.1% DMSO for 16 h before luciferase activity was measured using the Dual-Glo Luciferase Assay System (Promega) according to the manufacturer’s protocol on a Tecan Spark luminometer (Tecan Deutschland GmbH, Crailsheim, Germany). Firefly luminescence was divided by Renilla luminescence and multiplied by 1000 resulting in relative light units (RLU) to normalize for transfection efficiency and cell growth. Fold activation was obtained by dividing the mean RLU of the test compound by the mean RLU of the untreated control. All samples were tested in at least three biologically independent experiments in duplicates. For dose-response curve fitting and calculation of EC50 values, the equation “[Agonist] vs. response -- Variable slope (four parameters)” was used in GraphPad Prism (version 7.00, GraphPad Software, La Jolla, CA, USA). Selectivity profiling was performed with identical procedures using pFA-CMV-Nur77-LBD[14], pFA-CMV-NOR-1-LBD[14], pFA-CMV-THRα-LBD[51], pFA-CMV-RARα-LBD[52], pFA-CMV-PPARα-LBD[53], pFA-CMV-PPARγ-LBD[53], pFA-CMV-PPARδ-LBD[53], pFA-CMV-LXRα-LBD[54], pFA-CMV-FXR-LBD[55] and pFA-CMV-hRXRα-LBD[56].
# Nurr1 LBD = target: T2, Nurr1 LBD (Homo sapiens, UniProt P43354); test: Isothermal titration calorimetry (ITC); type: binding; settings: 25 °C
# T2 construct: Nurr1 LBD protein (5–30 µM, expressed as described previously[21]); made in house
# T2 sequence (P43354 360-595 limits assumed): as above
# Procedure: ITC experiments were conducted on an Affinity ITC instrument (TA Instruments, New Castle, DE) at 25 °C with a stirring rate of 75 rpm. Nurr1 LBD protein (5–30 µM, expressed as described previously[21]) in buffer (20 mM Tris pH 7.5, 100 mM NaCl, 5% glycerol) containing 1–4% DMSO was titrated with the test compounds (30–150 μM in the same buffer containing 1-4% DMSO) in 26 injections (1 × 1 µL, 25 × 3-4 μL) with an injection interval of 120-150 s. As control experiments, the test compounds were titrated to the buffer, and the buffer was titrated to the Nurr1 LBD protein under otherwise identical conditions. Results were analyzed using NanoAnalyze software (version 3.11.0, TA Instruments, New Castle, DE) with independent binding models.
# Microsomal stability = type: in vitro ADME, rat; settings: incubation of 36 with rat liver microsomes, listed as 36-NH2
# Procedure: To determine microsomal stability, test compounds (10 μM) were incubated in 100 mM potassium phosphate buffer at pH 7.4 (total volume of 100 µL) containing 0.5 mg/mL male rat liver microsomes (Sprague-Dawley, no. M9066, Merck KGaA, Darmstadt) and 1 mM NADPH for 0, 15, 30, or 60 min. At the end of the incubation time, microsomal activity was terminated by the addition of 500 µL MeCN and subsequent centrifugation at 1700 g for 5 min. A reaction mixture containing heat-inactivated microsomes (95 °C, 10 min) was prepared as a control for each compound. 5 µL supernatant of each sample was analyzed and the remaining concentrations of the respective test compounds at each time point were determined by LC-MS/MS on an API-3200-QTrap (Sciex) with an Agilent Technologies 1100 series setup including a binary pump (G1311A), a degasser (G1322A), and a Shimadzu SIL 20 A HT autosampler under the control of Analyst 1.6 (Sciex). A XBridge BEH C18 (3.5 µm, 150 mm×3 mm, Waters, protected with a 0.5 µm frit) stationary phase was used in combination with a gradient method starting with 0.1% formic acid in water (A) and MeCN (B) as mobile phase (A:B = 80:20) for 6 min going to A: B = 50:50 after 8 min. 5 µL of supernatant diluted in mobile phase starting conditions was loaded onto the column, separated at a flow rate of 400 µL/min, and detected and quantified per Area of MRM (multiple reaction monitoring) with the following transitions: m/z 381.797/145.000 (34); m/z 395.125/158.200 (36); m/z 409.822/131.000 (41); m/z 407.838/171.100 (42).
# [2] = Parallel artificial membrane permeability assay (PAMPA); type: in vitro ADME; settings: 500 µM donor, pH 7.4, 18 h
# Procedure: Passive lipid membrane diffusion of test compounds was determined using Merck Millipore MultiScreen Filter Plates (0.45 μm pore diameter, hydrophobic PVDF). The filter inserts were coated with 1% L-α-phosphatidylcholine (Fluka Analytical) in n-dodecan. The test compounds were then added to the donor compartment at a final concentration of 500 µM in a phosphate buffer pH 7.4 containing 5% DMSO with a total volume of 150 µL. The acceptor compartment was filled with 300 µL PBS containing 5% DMSO. Additionally, three equilibrium samples were prepared by directly adding the donor solution to the acceptor compartment for the calculation of log Pe values. The filter plates were incubated for 18 h before the test compound concentrations in the acceptor compartments and in the equilibrium, samples were determined by UV absorbance at 320 nm (34), 360 nm (36), 310 nm (41), or 315 nm (42) with external calibration in a 96 well quartz plate on a SpectraMax M2e microplate reader (Molecular Devices). logPe values were calculated according to the formula published by Sugano and colleagues.
# [3] = Table 2, Nurr1 agonism, read-out: pEC50 (converted)
# [4] = Gal4-Nurr1 hybrid reporter, HEK293T, mean ± SD, n ≥ 3
# [5] = Gal4-Nurr1 hybrid reporter, HEK293T, mean ± SD, n ≥ 3, read-out: EC50(Nurr1)
"max. activation ([1]; mean ± SD, n ≥ 3)","EC50 [1, 5] [µM]",SMILES,also measured
–,–,"CCN1CCN(c2cc(N3CCN(CC)CC3)nc(NCCNc3ccnc4cc(Cl)ccc34)n2)CC1 [Compound 1, reference compound]","EC50 [1, 3]: 20 µM"
1.7 ± 0.1 fold,–,"Cc1cc(N)c2cccc(Cl)c2n1 [Compound 3, 8-chloro-2-methylquinolin-4-amine, reference compound]",–
–,–,"O=C(Nc1ccnc2cc(Cl)ccc12)c1ccc(-c2ccc(Cl)cc2)o1 [Compound 4, reference compound]","EC50 [1, 3]: 15.8 µM"
–,–,"Cc1[nH]c2c(Cl)cccc2c1N [Compound 6, 7-chloro-2-methyl-1H-indol-3-amine]","EC50(Nurr1) [1, 4]: unstable"
–,–,"Cc1nc2cccc(Cl)c2[nH]1 [Compound 7, 4-Chloro-2-methyl-benzimidazole]","EC50(Nurr1) [1, 4]: inactive (100 µM)"
2.0 ± 0.1 fold,7 ± 1,"Cc1nc2c(Cl)cccn2c1N [Compound 8, 8-Chloro-2-methylimidazo[1,2-a]pyridine-3-amine]",Kd (Nurr1 LBD): 2.7 µM
–,–,Cc1nc2cc(Cl)ccn2c1N [Compound 9],"Kd (Nurr1 LBD) (Nurr1 LBD): weak binding; EC50(Nurr1) [1, 4]: inactive (100 µM)"
–,–,"Nc1cnc2c(Cl)cccn12 [Compound 12, 3-Amino-8-chloroimidazo[1,2-a]pyridine]",Kd (Nurr1 LBD): 5.1 µM
< 1.2-fold act.,–,CC(C)c1nc2c(Cl)cccn2c1N [Compound 14],–
1.4 ± 0.1 fold,4 ± 2,Nc1c(-c2ccccc2)nc2c(Cl)cccn12 [Compound 15],–
< 1.2-fold act.,–,Nc1c(-c2ccco2)nc2c(Cl)cccn12 [Compound 16],–
1.7 ± 0.2 fold,15 ± 3,Nc1c(-c2ccc(Cl)cc2)nc2c(Cl)cccn12 [Compound 17],–
1.7 ± 0.1 fold,9 ± 3,Nc1c(-c2cccc(Cl)c2)nc2c(Cl)cccn12 [Compound 18],–
–,–,Nc1c(-c2ccccc2Cl)nc2c(Cl)cccn12 [Compound 19],"EC50(Nurr1) [1, 4]: inactive (100 µM)"
2.0 ± 0.2 fold,12 ± 2,Cc1ccc(-c2nc3c(Cl)cccn3c2N)cc1 [Compound 20],–
< 1.2-fold act.,–,Cc1cccc(-c2nc3c(Cl)cccn3c2N)c1 [Compound 21],–
< 1.2-fold act.,–,Nc1c(-c2ccc(C(F)(F)F)cc2)nc2c(Cl)cccn12 [Compound 22],–

"max. activation ([1]; mean ± SD, n ≥ 3)","EC50 [1, 5] [µM]",SMILES,also measured
< 1.2-fold act.,–,Nc1c(-c2cccc(C(F)(F)F)c2)nc2c(Cl)cccn12 [Compound 23],–
1.8 fold and 1.8±0.1 fold,–,"Nc1c(-c2ccc(Cl)c(Cl)c2)nc2c(Cl)cccn12 [Compound 24, 8-Chloro-2-(3,4-dichlorophenyl)imidazo[1,2-a]pyridine-3-amine]","Kd (Nurr1 LBD): 0.7 µM; EC50 [1, 3]: 0.398 µM"
1.6 ± 0.1 fold,14 ± 2,Cc1ccc(-c2nc3c(Cl)cccn3c2N)cc1C [Compound 25],–
1.8 ± 0.1 fold,1.6 ± 0.5,Cc1nc2c(Cl)cccn2c1NC(=O)c1ccc(-c2ccc(Cl)cc2)o1 [Compound 26],Kd (Nurr1 LBD): 0.7 µM
2.1 ± 0.1 fold,4 ± 1,Cc1nc2c(Cl)cccn2c1NC(=O)c1ccc(-c2ccccc2)o1 [Compound 27],–
2.1 ± 0.1 fold,3.2 ± 0.4,Cc1nc2c(Cl)cccn2c1NC(=O)c1ccc(-c2ccccc2)s1 [Compound 28],–
–,–,Cc1nc2c(Cl)cccn2c1NC(=O)c1ccc(-c2ccccc2)cc1 [Compound 30],"highest non-toxic concentration ([1]; HEK293T): inactive (10 µM^b); EC50(Nurr1) [1, 4]: inactive (10 µM^b)"
1.8 ± 0.1 fold,1.1 ± 0.3,Cc1nc2c(Cl)cccn2c1NC(=O)c1ccc(-c2ccc(C(F)(F)F)cc2)o1 [Compound 31],–
2.0 ± 0.2 fold,0.13 ± 0.02,Cc1ccc(-c2ccc(C(=O)Nc3c(C)nc4c(Cl)cccn34)o2)cc1 [Compound 32],–
2.0 ± 0.1 fold,0.8 ± 0.2,Cc1nc2c(Cl)cccn2c1NC(=O)c1ccc(-c2ccc(OC(F)(F)F)cc2)o1 [Compound 33],–
1.8 ± 0.1 fold,0.3 ± 0.02,CNc1ccc(-c2ccc(C(=O)Nc3c(C)nc4c(Cl)cccn34)o2)cc1 [Compound 35],–
1.53±0.04 fold,0.04 ± 0.01,"CN(C)c1ccc(-c2ccc(C(=O)Nc3c(-c4ccc(Cl)c(Cl)c4)nc4c(Cl)cccn34)o2)cc1 [Compound 37, N-(8-Chloro-2-(3,4-dichlorophenyl)imidazo[1,2-a]pyridin-3-yl)-5-(4-(dimethylamino)phenyl)furan-2-carboxamidearboxamide]",Kd (Nurr1 LBD): 0.08 µM
<1.2-fold activation,–,Cc1nc2c(Cl)cccn2c1NC(=O)c1ccc(-c2ccc(N)cc2)o1 [Compound 38],AUC x10^5 (LC-MS peak area of 36 and its demethylated metabolites) (Microsomal stability; time 0 min): 0.0604 x10^5 and 0.0553 x10^5 and 0.0561 x10^5 and 0.0573 x10^5; AUC x10^5 (LC-MS peak area of 36 and its demethylated metabolites) (Microsomal stability; time 15 min): 1.99 x10^5 and 2.08 x10^5 and 1.81 x10^5 and 1.95 x10^5; AUC x10^5 (LC-MS peak area of 36 and its demethylated metabolites) (Microsomal stability; time 60 min): 4.34 x10^5 and 4.54 x10^5 and 4 x10^5 and 5.57 x10^5
–,–,Cc1nc2c(Cl)cccn2c1NC(=O)c1ccc(-c2ccc(N3CCOCC3)cc2)o1 [Compound 39],"highest non-toxic concentration ([1]; HEK293T): inactive (10 µM^c); EC50(Nurr1) [1, 4]: inactive (10 µM^c)"
–,–,Cc1nc2c(Cl)cccn2c1NC(=O)c1ccc(-c2ccc(N3CCN(C)CC3)cc2)o1 [Compound 40],"highest non-toxic concentration ([1]; HEK293T): inactive (10 µM^d); EC50(Nurr1) [1, 4]: inactive (10 µM^d)"
–,–,"CC(C)NCC(O)COc1cccc2ccccc12 (centres unmarked) [propranolol, reference compound]",logPe (PAMPA) [2]: -5.096 and -5.109 and -5.101 and -5.087 and -5.042 and -5.07
